How the values were obtained:
Assay in all cases: Reduction of azo substrates over 24 hours at 35° C., microtitration plate (Example 1)
Format in all cases: cell-based
[1] = system: Pseudomonas aeruginosa; set-up: key to RED (substrate reduced or not): RED indicates whether the substrate is reduced (Y) or not (N); RED indicates whether the substrate is reduced (Y) or not (N); key to Co (growth, absorbance at 660 nm) / Decol (substrate decolourized, decrease in absorbance) / Fluo (fluorescence multiplied by 2 relative to substrate-free control): The symbol “+” means good growth/decolourization/significant increase in fluorescence; The symbol “+/−” means difficult growth; The symbol “−” means that there is no growth/decolourization/significant increase in fluorescence; details: P. aeruginosa, substrate 35 mg/l
Description: (§1) Reduction of the “azo” function of the substrates listed in Table I by the species listed in Table II, each species being represented by a strain, is tested in a microtitration plate.
(§2) The reaction medium consists of: • Trypcase soya broth • Substrate 35 mg/l • 0.5 MacFarland inoculum
(§3) The reduction of the substrate and the growth of the microorganisms are monitored using an Infinite® M200 Tecan microplate reader at 35° C. over 24 hours.
(§4) The growth is monitored by the absorbance at 660 nm and the reduction of the substrates by absorbance and fluorescence at the specific wavelengths indicated in Table III.
(§5) The substrate is considered as reduced by the microorganisms when the substrate is decolourized (monitored by the decrease in absorbance) (Decol) and/or when the fluorescence of the substrate is multiplied by 2 relative to the base fluorescence of a substrate-free control (Fluo). The growth is indicated by Co. The symbol “+” means good growth/decolourization/significant increase in fluorescence. The symbol “+/−” means difficult growth. The symbol “−” means that there is no growth/decolourization/significant increase in fluorescence. RED indicates whether the substrate is reduced (Y) or not (N).

[2] = system: Staphylococcus aureus; set-up: key to RED (substrate reduced or not): RED indicates whether the substrate is reduced (Y) or not (N); RED indicates whether the substrate is reduced (Y) or not (N); key to Co (growth, absorbance at 660 nm) / Decol (substrate decolourized, decrease in absorbance) / Fluo (fluorescence multiplied by 2 relative to substrate-free control): The symbol “+” means good growth/decolourization/significant increase in fluorescence; The symbol “+/−” means difficult growth; The symbol “−” means that there is no growth/decolourization/significant increase in fluorescence; details: S. aureus, substrate 35 mg/l
Description: as §1, §2, §3, §4, §5

[3] = system: Kocuria rosea; set-up: key to RED (substrate reduced or not): RED indicates whether the substrate is reduced (Y) or not (N); RED indicates whether the substrate is reduced (Y) or not (N); key to Co (growth, absorbance at 660 nm) / Decol (substrate decolourized, decrease in absorbance) / Fluo (fluorescence multiplied by 2 relative to substrate-free control): The symbol “+” means good growth/decolourization/significant increase in fluorescence; The symbol “+/−” means difficult growth; The symbol “−” means that there is no growth/decolourization/significant increase in fluorescence; details: K. rosea, substrate 35 mg/l
Description: as §1, §2, §3, §4, §5

[4] = system: Staphylococcus epidermidis; set-up: key to RED (substrate reduced or not): RED indicates whether the substrate is reduced (Y) or not (N); RED indicates whether the substrate is reduced (Y) or not (N); key to Co (growth, absorbance at 660 nm) / Decol (substrate decolourized, decrease in absorbance) / Fluo (fluorescence multiplied by 2 relative to substrate-free control): The symbol “+” means good growth/decolourization/significant increase in fluorescence; The symbol “+/−” means difficult growth; The symbol “−” means that there is no growth/decolourization/significant increase in fluorescence; details: S. epidermidis, substrate 35 mg/l
Description: as §1, §2, §3, §4, §5

[5] = system: Escherichia coli; set-up: key to RED (substrate reduced or not): RED indicates whether the substrate is reduced (Y) or not (N); RED indicates whether the substrate is reduced (Y) or not (N); key to Co (growth, absorbance at 660 nm) / Decol (substrate decolourized, decrease in absorbance) / Fluo (fluorescence multiplied by 2 relative to substrate-free control): The symbol “+” means good growth/decolourization/significant increase in fluorescence; The symbol “+/−” means difficult growth; The symbol “−” means that there is no growth/decolourization/significant increase in fluorescence; details: E. coli, substrate 35 mg/l
Description: as §1, §2, §3, §4, §5

[6] = system: Cronobacter muytjensii; set-up: key to RED (substrate reduced or not): RED indicates whether the substrate is reduced (Y) or not (N); RED indicates whether the substrate is reduced (Y) or not (N); key to Co (growth, absorbance at 660 nm) / Decol (substrate decolourized, decrease in absorbance) / Fluo (fluorescence multiplied by 2 relative to substrate-free control): The symbol “+” means good growth/decolourization/significant increase in fluorescence; The symbol “+/−” means difficult growth; The symbol “−” means that there is no growth/decolourization/significant increase in fluorescence; details: E. muytjensii, substrate 35 mg/l
Description: as §1, §2, §3, §4, §5

[7] = system: Geotrichum candidum; set-up: key to RED (substrate reduced or not): RED indicates whether the substrate is reduced (Y) or not (N); RED indicates whether the substrate is reduced (Y) or not (N); key to Co (growth, absorbance at 660 nm) / Decol (substrate decolourized, decrease in absorbance) / Fluo (fluorescence multiplied by 2 relative to substrate-free control): The symbol “+” means good growth/decolourization/significant increase in fluorescence; The symbol “+/−” means difficult growth; The symbol “−” means that there is no growth/decolourization/significant increase in fluorescence; details: G. candidum, substrate 35 mg/l
Description: as §1, §2, §3, §4, §5

[8] = system: Candida albicans; set-up: key to RED (substrate reduced or not): RED indicates whether the substrate is reduced (Y) or not (N); RED indicates whether the substrate is reduced (Y) or not (N); key to Co (growth, absorbance at 660 nm) / Decol (substrate decolourized, decrease in absorbance) / Fluo (fluorescence multiplied by 2 relative to substrate-free control): The symbol “+” means good growth/decolourization/significant increase in fluorescence; The symbol “+/−” means difficult growth; The symbol “−” means that there is no growth/decolourization/significant increase in fluorescence; details: substrate 35 mg/l
Description: as §1, §2, §3, §4, §5

[9] = system: Acinetobacter baumanii; set-up: key to RED (substrate reduced or not): RED indicates whether the substrate is reduced (Y) or not (N); RED indicates whether the substrate is reduced (Y) or not (N); key to Decol (substrate decolourized, decrease in absorbance) / Fluo (fluorescence multiplied by 2 relative to substrate-free control) / Co (growth, absorbance at 660 nm): The symbol “+” means good growth/decolourization/significant increase in fluorescence; The symbol “+/−” means difficult growth; The symbol “−” means that there is no growth/decolourization/significant increase in fluorescence; details: A. baumannii, substrate 35 mg/l
Description: as §1, §2, §3, §4, §5

[10] = system: Enterococcus faecalis; set-up: key to RED (substrate reduced or not): RED indicates whether the substrate is reduced (Y) or not (N); RED indicates whether the substrate is reduced (Y) or not (N); key to Decol (substrate decolourized, decrease in absorbance) / Fluo (fluorescence multiplied by 2 relative to substrate-free control) / Co (growth, absorbance at 660 nm): The symbol “+” means good growth/decolourization/significant increase in fluorescence; The symbol “+/−” means difficult growth; The symbol “−” means that there is no growth/decolourization/significant increase in fluorescence; details: E. faecalis, substrate 35 mg/l
Description: as §1, §2, §3, §4, §5

Question: What does the source list for `O=C(O)c1ccccc1/N=N/c1cc(Br)c(O)c(Br)c1` [2-(4-hydroxy-3,5-dibromophenylazo)benzoic acid]?
Answer: Co (growth, absorbance at 660 nm) [1]: +; Decol (substrate decolourized, decrease in absorbance) [1]: −; Fluo (fluorescence multiplied by 2 relative to substrate-free control) [1]: −; RED (substrate reduced or not) [1]: N; Co (growth, absorbance at 660 nm) [2]: +; Decol (substrate decolourized, decrease in absorbance) [2]: +; Fluo (fluorescence multiplied by 2 relative to substrate-free control) [2]: +; RED (substrate reduced or not) [2]: Y; Co (growth, absorbance at 660 nm) [3]: −; Decol (substrate decolourized, decrease in absorbance) [3]: −; Fluo (fluorescence multiplied by 2 relative to substrate-free control) [3]: −; Co (growth, absorbance at 660 nm) [4]: +; Decol (substrate decolourized, decrease in absorbance) [4]: +/−; Fluo (fluorescence multiplied by 2 relative to substrate-free control) [4]: +; RED (substrate reduced or not) [4]: Y; Co (growth, absorbance at 660 nm) [5]: +; Decol (substrate decolourized, decrease in absorbance) [5]: −; Fluo (fluorescence multiplied by 2 relative to substrate-free control) [5]: +; RED (substrate reduced or not) [5]: Y; Co (growth, absorbance at 660 nm) [6]: +; Decol (substrate decolourized, decrease in absorbance) [6]: +; Fluo (fluorescence multiplied by 2 relative to substrate-free control) [6]: +; RED (substrate reduced or not) [6]: Y; Co (growth, absorbance at 660 nm) [7]: +; Decol (substrate decolourized, decrease in absorbance) [7]: −; Fluo (fluorescence multiplied by 2 relative to substrate-free control) [7]: +; RED (substrate reduced or not) [7]: Y; Co (growth, absorbance at 660 nm) [8]: +; Decol (substrate decolourized, decrease in absorbance) [8]: −; Fluo (fluorescence multiplied by 2 relative to substrate-free control) [8]: −; RED (substrate reduced or not) [8]: N; Co (growth, absorbance at 660 nm) [9]: +; Decol (substrate decolourized, decrease in absorbance) [9]: −; Fluo (fluorescence multiplied by 2 relative to substrate-free control) [9]: +; RED (substrate reduced or not) [9]: Y; Co (growth, absorbance at 660 nm) [10]: +; Decol (substrate decolourized, decrease in absorbance) [10]: +; Fluo (fluorescence multiplied by 2 relative to substrate-free control) [10]: +; RED (substrate reduced or not) [10]: Y

Question: What does the source list for `Nc1ccc(/N=N/c2ccc(S(=O)(=O)O)cc2)cc1S(=O)(=O)O` [4-aminoazobenzene-3,4′-disulfonic acid, 4-Aminoazobenzene-3,4′-disulfonic acid]?
Answer: Co (growth, absorbance at 660 nm) [1]: +; Decol (substrate decolourized, decrease in absorbance) [1]: −; Fluo (fluorescence multiplied by 2 relative to substrate-free control) [1]: −; RED (substrate reduced or not) [1]: N; Co (growth, absorbance at 660 nm) [2]: +; Decol (substrate decolourized, decrease in absorbance) [2]: −; Fluo (fluorescence multiplied by 2 relative to substrate-free control) [2]: −; RED (substrate reduced or not) [2]: N; Co (growth, absorbance at 660 nm) [3]: −; Decol (substrate decolourized, decrease in absorbance) [3]: −; Fluo (fluorescence multiplied by 2 relative to substrate-free control) [3]: −; Co (growth, absorbance at 660 nm) [4]: +; Decol (substrate decolourized, decrease in absorbance) [4]: −; Fluo (fluorescence multiplied by 2 relative to substrate-free control) [4]: −; RED (substrate reduced or not) [4]: N; Co (growth, absorbance at 660 nm) [5]: +; Decol (substrate decolourized, decrease in absorbance) [5]: −; Fluo (fluorescence multiplied by 2 relative to substrate-free control) [5]: −; RED (substrate reduced or not) [5]: N; Co (growth, absorbance at 660 nm) [6]: +; Decol (substrate decolourized, decrease in absorbance) [6]: −; Fluo (fluorescence multiplied by 2 relative to substrate-free control) [6]: −; RED (substrate reduced or not) [6]: N; Co (growth, absorbance at 660 nm) [7]: +; Decol (substrate decolourized, decrease in absorbance) [7]: −; Fluo (fluorescence multiplied by 2 relative to substrate-free control) [7]: −; RED (substrate reduced or not) [7]: N; Co (growth, absorbance at 660 nm) [8]: +; Decol (substrate decolourized, decrease in absorbance) [8]: +; Fluo (fluorescence multiplied by 2 relative to substrate-free control) [8]: +; RED (substrate reduced or not) [8]: Y; Co (growth, absorbance at 660 nm) [9]: +; Decol (substrate decolourized, decrease in absorbance) [9]: −; Fluo (fluorescence multiplied by 2 relative to substrate-free control) [9]: −; RED (substrate reduced or not) [9]: N; Co (growth, absorbance at 660 nm) [10]: +; Decol (substrate decolourized, decrease in absorbance) [10]: +; Fluo (fluorescence multiplied by 2 relative to substrate-free control) [10]: +; RED (substrate reduced or not) [10]: Y
